Literature values, collected in patent US5413991A (Ajinomoto Co., Inc., priority 1991, dated 1995).

Experiments:
[1] = molecular target: chitinase from baker's yeast (Saccharomyces cerevisiae) (Saccharomyces cerevisiae, UniProt P29029); conditions: background statement; cited from earlier work
[2] = system: chitinase of pathogenic fungi such as Candida albicans; conditions: background statement; cited from earlier work

Chain of chitinase from baker's yeast (Saccharomyces cerevisiae) (P29029 21-562): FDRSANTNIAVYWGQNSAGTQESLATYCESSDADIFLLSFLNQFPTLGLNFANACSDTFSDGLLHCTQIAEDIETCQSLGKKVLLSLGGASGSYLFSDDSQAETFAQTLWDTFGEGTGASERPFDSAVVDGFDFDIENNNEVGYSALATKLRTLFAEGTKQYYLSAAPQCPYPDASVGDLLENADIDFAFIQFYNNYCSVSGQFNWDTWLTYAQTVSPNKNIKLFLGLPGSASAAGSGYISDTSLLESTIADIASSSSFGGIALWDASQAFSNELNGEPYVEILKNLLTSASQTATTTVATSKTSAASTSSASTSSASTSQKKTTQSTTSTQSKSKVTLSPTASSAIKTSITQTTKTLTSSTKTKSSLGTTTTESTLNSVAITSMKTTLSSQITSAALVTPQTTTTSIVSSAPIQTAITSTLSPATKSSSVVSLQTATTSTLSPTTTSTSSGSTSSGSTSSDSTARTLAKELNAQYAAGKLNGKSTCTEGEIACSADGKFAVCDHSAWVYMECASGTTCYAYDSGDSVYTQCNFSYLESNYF

CNC1=N[C@@H]2[C@@H](O)[C@H](O[C@@H]3O[C@H](CO)[C@@H](O[C@@H]4O[C@H](CO)[C@@H](O)[C@@H](O)[C@H]4NC(C)=O)[C@@H](O)[C@H]3NC(C)=O)[C@@H](CO)[C@@H]2O1 [Demethylallosamidin, demethylallosamidin]
Inhibitory activity against chitinase from baker's yeast [1]: potent inhibitory activity | Inhibitory activity against chitinase of Candida albicans [2]: insufficient
